Results: US5124347A, “3-5-ditertiarybutylphenyl-4-hydroxymethylidene derivatives of 1,3-dihydro-2H-indole-2-ones as antiinflammatory agents” (Warner-Lambert Co., priority 1991, dated 1992)
Where two headings read alike, the source gives them in different places.

Legend:
[1] = molecular target: T1, 5-lipoxygenase (Rattus norvegicus, UniProt P12527); assay: ARBL whole cell 5-lipoxygenase assay (RBL-1 cells, inhibition of LTB4 formation); format: cell-based; settings: calcium ionophore A23187 (5 μM)
T1 construct: host or cells: RBL-1 (rat basophilic leukemia)
T1 sequence (P12527 1-673): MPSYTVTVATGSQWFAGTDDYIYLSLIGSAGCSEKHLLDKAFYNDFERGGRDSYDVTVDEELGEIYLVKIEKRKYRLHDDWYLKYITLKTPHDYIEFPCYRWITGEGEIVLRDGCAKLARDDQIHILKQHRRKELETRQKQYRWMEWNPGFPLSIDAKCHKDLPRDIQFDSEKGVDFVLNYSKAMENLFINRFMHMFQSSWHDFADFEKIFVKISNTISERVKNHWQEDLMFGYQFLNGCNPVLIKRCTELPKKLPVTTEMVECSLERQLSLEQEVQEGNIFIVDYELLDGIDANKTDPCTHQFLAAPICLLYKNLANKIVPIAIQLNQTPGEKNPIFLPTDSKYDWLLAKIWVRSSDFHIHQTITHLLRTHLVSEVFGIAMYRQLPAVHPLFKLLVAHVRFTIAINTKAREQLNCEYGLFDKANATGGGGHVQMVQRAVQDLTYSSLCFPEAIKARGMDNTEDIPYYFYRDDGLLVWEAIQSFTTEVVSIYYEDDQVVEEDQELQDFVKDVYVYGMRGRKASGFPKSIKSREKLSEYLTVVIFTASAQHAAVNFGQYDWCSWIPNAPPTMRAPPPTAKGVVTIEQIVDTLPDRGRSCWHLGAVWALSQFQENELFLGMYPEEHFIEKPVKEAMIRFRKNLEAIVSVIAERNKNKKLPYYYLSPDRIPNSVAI
Protocol: (§1) ARBL/ARBC WHOLE CELL 5-LIPOXYGENASE AND CYCLOOXYGENASE ASSAYS
(§2) The rat basophilic leukemia cell line (RBL-1) was obtained from the American Type Culture Collection (Rockville, Md.).
(§3) Radioimmunoassay (RIA) kits of LTB4 and PGF2α were obtained from Amersham (Arlington Heights, Ill.) and Seragen (Boston, Mass.), respectively.
(§4) All tissue culture media were obtinaed from GIBCO (Grand Island, N.Y.).
(§5) RBL-1 cells are grown in suspension culture in Eagle's minimum essential medium supplemented with 12% fetal bovine serum at 37° C. in an incubator supplied with air-5% carbon dioxide. Cells are harvested by centrifugation. They are washed with cold phosphate-buffered saline, pH 7.4 (PBS; NaCl, 7.1 g; Na2 HPO4, 1.15 g; KH2 PO4, 0.2 g; and KCl, 0.2 g/L). Cells are finally suspended in PBS containing 1.0 mM calcium at a density of 2×10^6 cells/mL. Cells are incubated […] test agent (in DMSO) (1% DMSO is without effect on arachidonic acid metabolism) for 10 minutes at room temperature. Calcium ionophore A23187 (5 μM) is added and cells are incubated for 7 minutes at 37° C. The reaction is stopped by chilling the tubes on ice for 10 minutes. Cells are separated by centrifugation and the supernatant is stored at -20° C. Aliquots (100 μL) are anlyzed for LTB4 and PGF2α using radioimmunoassay kits as provided by the supplier.
(§6) Table 1 contains biochemical data for compounds of formula I obtained from this whole cell assay as amount of inhibition at 10 μM or IC50 s which are calculated as the concentration of a test compound in micromoles (μM) causing 50% inhibition of LTB4 or PGF2α formation.

[2] = molecular target: T2, cyclooxygenase (Rattus norvegicus, UniProt Q63921); assay: ARBC whole cell cyclooxygenase assay (RBL-1 cells, inhibition of PGF2α formation); format: cell-based; settings: calcium ionophore A23187 (5 μM)
T2 construct: host or cells: RBL-1 (rat basophilic leukemia)
T2 sequence (Q63921 27-602): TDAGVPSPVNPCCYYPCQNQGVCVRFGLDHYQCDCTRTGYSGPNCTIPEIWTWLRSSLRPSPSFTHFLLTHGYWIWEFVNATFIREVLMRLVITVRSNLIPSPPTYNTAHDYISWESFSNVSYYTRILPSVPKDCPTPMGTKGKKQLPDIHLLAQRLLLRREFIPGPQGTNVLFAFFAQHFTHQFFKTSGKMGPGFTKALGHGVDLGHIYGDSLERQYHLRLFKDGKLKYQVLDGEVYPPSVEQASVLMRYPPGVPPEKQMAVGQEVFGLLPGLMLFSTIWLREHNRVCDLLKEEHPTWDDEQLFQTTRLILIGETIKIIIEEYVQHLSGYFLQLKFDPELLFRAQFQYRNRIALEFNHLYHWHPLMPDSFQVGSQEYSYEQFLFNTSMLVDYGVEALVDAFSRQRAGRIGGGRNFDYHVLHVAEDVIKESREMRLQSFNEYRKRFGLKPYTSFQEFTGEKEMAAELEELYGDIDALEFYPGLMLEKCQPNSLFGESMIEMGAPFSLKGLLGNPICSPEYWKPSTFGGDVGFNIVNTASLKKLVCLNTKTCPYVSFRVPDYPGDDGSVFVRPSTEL
Protocol: as §1, §2, §3, §4, §5, §6

[3] = test system: Carrageenan-Induced Rat Foot Paw Edema; assay: Carrageenan-Induced Rat Foot Paw Edema-2 (CFE-2) Assay; format: in vivo; settings: at 10 m/k, dosed one hour before carrageenan, edema at five hours
Protocol: Carrageenan-Induced Rat Foot Paw Edema-2 (CFE-2) Assay: Protocol
Carrageenan solution (1% w/v) is prepared by dissolving 100 mg carrageenan (Marine Colloidal Div., Springfield N.J.) in 10 ml of sterile saline (0.9%) solution (travenol). The solution is vortexed for 30 to 45 minutes. Animals are dosed with compound one hour before carrageenan challenge. Foot paw edema is induced by injecting 0.10 ml of the 1% carrageenan subcutaneously into the plantar portion of the right hind paw of each rat under light anesthesia. Initial foot paw volume is measured immediately following carrageenan challenge using mercury plethysmography (Buxco Electronics). Edema is measured five hours after carrageenan. The difference between the five-hour and the initial paw volume is expressed as delta edema. The delta edema for each test group of animals is used to calculate the percent inhibition of edema achieved by the compound at the test dose compared with the vehicle control group. The ID40 (the dose at which swelling is inhibited by 40%) is calculated by probit analysis for the dose at which 40 percent inhibition occurs.
Table 1 also contains biochemical data for compounds of formula I obtained from the CFE and MFE assays.

[4] = test system: Mycobacterium-Induced Rat Footpad Edema; assay: Mycobacterium-Induced Rat Footpad Edema Assay (MFE); format: in vivo; settings: at 10 m/k, dosed one hour before Mycobacterium and Days 1 and 2, 72 hours
Protocol: Mycobacterium - Induced Rat Footpad Edema Assay (MFE): Protocol Mycobacterium butyricum (5 mg/ml) is suspended in paraffin oil by sonication for ten minutes in an ice bath. Footpad edema is induced on Day 0 by injecting 0.1 ml of the Mycobacterium mixture into the left hindpaw of lightly anesthetized rats. Swelling in the injected hindpaw is determined by mercury plethysmography 72 hours after injection. Groups of rats are treated with test compounds (suspended in 0.5% hydroxypropyl methylcellulose with 0.2% Tween-80) or vehicle one hour before Mycobacterium injection and on Days 1 and 2. Inhibition of swelling is determined by comparing the change in hindpaw volume in compound- and vehicle-treated rats. An ID40 (the dose at which swelling is inhibited by 40%) is calculated by probit analysis. Table 1 also contains biochemical data for compounds of formula I obtained from the CFE and MFE assays.

[5] = read-out: ARBC, inhibition of PGF2α
[6] = read-out: ARBC, inhibition of PGF2α (class symbol N)

Question: How did the inhibition at 10 µM [1] turn out when `CC(C)(C)c1cc(/C=C2\C(=O)N(C(N)=O)c3ccccc32)cc(C(C)(C)C)c1O` [Example 3] was run?
Answer: Its inhibition at 10 µM is 100%.

Question: What about the inhibition at 10 µM [2, 5] of the same compound?
Answer: The inhibition at 10 µM was 32%.

Question: Which results are given for `CCOC(=O)c1ccc2c(c1)/C(=C/c1cc(C(C)(C)C)c(O)c(C(C)(C)C)c1)C(=O)N2` [Example 6, 3-[[3,5-bis(1,1-dimethylethyl)-4-hydroxyphenyl]-methylene]-2,3-dihydro-2-oxo-1H-indole-5-carboxylic acid, ethyl ester (Z)-]?
Answer: inhibition at 10 µM [1]: 100%; inhibition at 10 µM [2, 6]: < 40%

Question: How did the inhibition at 10 µM [1] turn out when `COc1ccc2c(c1)/C(=C/c1cc(C(C)(C)C)c(O)c(C(C)(C)C)c1)C(=O)N2C` [Example 8, 3-[[3,5-bis(1,1-dimethylethyl)-4-hydroxyphenyl]methylene]-1,3-dihydro-5-methoxy-1-methyl-2H-indole-2-one, (Z)-] was run?
Answer: Its inhibition at 10 µM is 100%.

Question: And the inhibition at 10 µM [2, 6]?
Answer: Its inhibition at 10 µM is under 40%.

Question: `Cc1cccc2c1NC(=O)/C2=C\c1cc(C(C)(C)C)c(O)c(C(C)(C)C)c1` [Example 7] was tested. Which inhibition at 10 µM [1] did it give?
Answer: Its inhibition at 10 µM is 100%.

Question: And the inhibition at 10 µM [2, 6]?
Answer: The inhibition at 10 µM was under 40%.

Question: `CC(C)(C)c1cc(/C=C2\C(=O)Nc3ccc(C(=O)O)cc32)cc(C(C)(C)C)c1O` [Example 12, 3-[[3,5-bis(1,1-dimethylethyl)-4-hydroxyphehyl]methylene]-2,3-dihydro-2-oxo-1H-indole-5-carboxylic acid, (Z)-] was tested. Which inhibition at 10 µM [1] did it give?
Answer: The inhibition at 10 µM was 100%.

Question: What about the inhibition at 10 µM [2, 6] of the same compound?
Answer: The inhibition at 10 µM was under 40%.

Question: Which results are given for `Cc1cccc2c1/C(=C/c1cc(C(C)(C)C)c(O)c(C(C)(C)C)c1)C(=O)N2` [Example 10, 3-[[3,5-bis(1,1-dimethylethyl)-4-hydroxyphenyl]methylene]-1,3-dihydro-4-methyl-2H-indole-2-one, (Z)-]?
Answer: inhibition at 10 µM [1]: 100%; inhibition at 10 µM [2, 6]: < 40%

Question: `CN1C(=O)/C(=C\c2cc(C(C)(C)C)c(O)c(C(C)(C)C)c2)c2ccccc21` [Example 4] was tested. Which inhibition at 10 µM [1] did it give?
Answer: The inhibition at 10 µM was 100%.

Question: And the inhibition at 10 µM [2, 5]?
Answer: The inhibition at 10 µM was 30%.

Question: For `COc1cccc2c1NC(=O)/C2=C\c1cc(C(C)(C)C)c(O)c(C(C)(C)C)c1` [Example 5, 3-[[3,5-bis(1,1-dimethylethyl)-4-hydroxyphenyl]-methylene]-1,3-dihydro-7-methoxy-2H-indol-2-one, (Z)-], which IC50 [1] is on record?
Answer: The IC50 was 0.43 µM.

Question: And the IC50 [2]?
Answer: Its IC50 is 6.07 µM.

Question: What about the “CFE, inhibition of edema” value [3] of the same compound?
Answer: Its value is 43%.

Question: What about the “MFE, inhibition of swelling” value [4] of the same compound?
Answer: The value was 33%.

Question: For `Cc1ccc2c(c1)/C(=C/c1cc(C(C)(C)C)c(O)c(C(C)(C)C)c1)C(=O)N2` [Example 2, 3-[[3,5-Bis(1,1-dimethylethyl)-4-hydroxyphenyl]-methylene]-1,3-dihydro-5-methyl-2H-indole-2-one, (Z)], which inhibition at 10 µM [1] is on record?
Answer: The inhibition at 10 µM was 100%.

Question: And the inhibition at 10 µM [2, 6]?
Answer: The inhibition at 10 µM was under 40%.

Question: Which IC50 [1] does the source give for `CC(C)(C)c1cc(/C=C2\C(=O)Nc3ccccc32)cc(C(C)(C)C)c1O` [Example 1, 3-[[3,5-bis(1,1-dimethylethyl)-4-hydroxyphenyl]methylene]1,3,-dihydro-2H-indole-2-one, (Z)-] here?
Answer: The IC50 was 0.93 µM.

Question: And the IC50 [2]?
Answer: The IC50 was 1.5 µM.

Question: And the “MFE, inhibition of swelling” value [4]?
Answer: The value was 42%.

Question: What does the source list for `CC(C)(C)c1cc(/C=C2\C(=O)Nc3cccc(Cl)c32)cc(C(C)(C)C)c1O` [Example 9, 3-[[3,5-bis(1,1-dimethylethyl)-4-hydroxyphenyl]methylene]-4-chloro-1,3-dihydro-2H-indole-2-one, (Z)-]?
Answer: inhibition at 10 µM [1]: 48%; inhibition at 10 µM [2, 6]: < 40%
